Results on 15 compounds are retold here after patent US20100317515A1, “Azolylmethyloxiranes, use Thereof and Agents Containing the Same” (priority 2007, published 2010).

In one experiment the test system is Pyricularia oryzae. The format is cell-based.
For the next experiment, the system named is Septoria tritici. The experiment can be described thus: Activity against the Septoria leaf spot pathogen Septoria tritici in the microtiter test (Septtr). The format is cell-based.
The next experiment deals with Alternaria solani. The experiment can be described thus: Activity against the early blight pathogen Alternaria solani in the microtiter test (Alteso). The format is cell-based. As to conditions: day 7, relative to active compound-free control (100%).
The subject of the next experiment is Leptosphaeria nodorum. The experiment can be described thus: Activity against the leaf and glume blotch pathogen Leptosphaeria nodorum in the microtiter test (Leptno). Type of experiment: cell-based.
Another experiment concerns Botrytis cinerea. The experiment can be described thus: Activity against gray mold on bell pepper leaves caused by Botrytis cinerea, 1 day protective application (Botrci P1). Type of experiment: in vivo. As to conditions: untreated 90%. How it is done:
(§1) The active compounds were prepared separately or jointly as a stock solution comprising 25 mg of active compound which was made up to 10 ml using a mixture of acetone and/or DMSO and the emulsifier Uniperol® EL (wetting agent having emulsifying and dispersing action based on ethoxylated alkylphenols) in a volume ratio of solvent/emulsifier of 99:1. The mixture was then made up to 100 ml with water. This stock solution was diluted with the solvent/emulsifier/water mixture described to give the concentration of active compounds stated below. Alternatively, the active compounds were used as a commercial finished formulation and diluted with water to the concentration of active compounds stated.
Activity Against Gray Mold on Bell Pepper Leaves Caused by Botrytis cinerea, 1 Day Protective Application (Botrci P1)
Bell pepper seedlings were, after 2-3 leaves were well developed, sprayed to runoff point with an aqueous suspension having the active compound concentration stated below. The next day, the treated plants were inoculated with a spore suspension of Botrytis cinerea in a 2% strength biomalt solution. The test plants were then placed in a dark climatized chamber at 22 to 24° C. and high atmospheric humidity. After 5 days, the extent of the fungal infection on the leaves could be determined visually in %.

The subject of the next experiment is Puccinia recondita. As to the kind of experiment: Protective activity against Puccinia recondita on wheat (brown rust of wheat) (Puccrt P1). The format is in vivo.
In a further experiment the test system is Phakopsora pachyrhizi. The experiment can be described thus: Curative activity against soybean rust caused by Phakopsora pachyrhizi (Phakpa K1). As to conditions: curative application, untreated 90%. The format is in vivo, Phakopsora pachyrhizi on soybean. The protocol:
as §1
Curative Activity Against Soybean Rust Caused by Phakopsora pachyrhizi (Phakpa K1)
Leaves of potted soybean seedlings were inoculated with a spore suspension of soybean rust (Phakopsora pachyrhizi). The pots were then placed in a chamber with high atmospheric humidity (90 to 95%) and at 23 to 27° C. for 24 hours. During this time, the spores germinated and the germ tubes penetrated into the leaf tissue. The infected plants were then sprayed to runoff point with the active compound solution described above at the active compound concentration stated below. After the spray coating had dried on, the test plants were cultivated in a greenhouse at temperatures between 23 and 27° C. and 60 to 80% relative atmospheric humidity for 14 days. The extent of the rust fungus development on the leaves was then determined visually in % infection.

Setting [1] is: 31 ppm, microtiter test, comparative experiments.
The mark [2] stands for this setting: 31 ppm, microtiter test, day 7, relative to active compound-free control (100%).

Read-outs that look alike come from different tables or passages of the source.

On to `COC(=O)Sc1ncnn1CC1(c2ccc(F)cc2F)OC1c1ccccc1Cl` (centres unmarked) [WO9742178, p. 55 (4th compound)], for which the “Growth in % at 31 ppm for Pyrior” value in the experiment on Pyricularia oryzae (setting [1]) was 94%.

On to `N#CSc1ncnn1C[C@]1(c2ccc(F)cc2F)O[C@@H]1c1ccccc1Cl` (relative stereo) [Example 12, 1-[rel-(2S,3R)-3-(2-chlorophenyl)-2-(2,4-difluorophenyl)oxiran-2-ylmethyl]-5-thiocyanato-1H-1,2,4-triazole], for which the “Growth in % at 31 ppm for Septtr” value in the experiment on Septoria tritici (setting [2]) came out at 1%. Moreover, the “Growth in % at 31 ppm for Alteso” value in the experiment with Alternaria solani came out at 43%.

On to `Fc1ccc([C@@]2(Cn3ncnc3S)O[C@@H]2c2ccccc2F)cc1` [WO9638440, p. 9 (2nd compound)], for which the “Growth in % at 31 ppm for Pyrior” value in the experiment with Pyricularia oryzae (setting [1]) turned out to be 30%.

For `Fc1ccc([C@@]2(Cn3ncnc3[S-])O[C@@H]2c2ccccc2Cl)c(F)c1.[Na+]` (relative stereo) [Example 16, sodium rel-(2S,3R)-2-[3-(2-chlorophenyl)-2-(2,4-difluorophenyl)oxiranylmethyl]-2H-[1,2,4]triazole-3-thiolate], the “Growth in % at 31 ppm for Leptno” value in the experiment with Leptosphaeria nodorum (setting [2]) is on record as 4%.

Regarding `CCOP(=S)(OCC)Sc1ncnn1C[C@]1(c2ccc(F)cc2F)O[C@@H]1c1ccccc1Cl` (relative stereo) [Example 13, S-1-[rel-(2S,3R)-3-(2-chlorophenyl)-2-(2,4-difluorophenyl)oxiran-2-ylmethyl]-1H-1,2,4-triazol-5-yl O,O-diethyl phosphorodithioate], the “Growth in % at 31 ppm for Septtr” value with Septoria tritici turned out to be 4%.

`Fc1ccc([C@@]2(Cn3nc[nH]c3=S)O[C@@H]2c2ccccc2Cl)cc1Br` [WO9638440, p. 7 (2nd compound)]: in the experiment with Leptosphaeria nodorum (setting [1]), the “Growth in % at 31 ppm for Leptno” value was determined as 100%.

In the case of `CC(=O)Sc1ncnn1C[C@]1(c2ccc(F)cc2F)O[C@@H]1c1ccccc1Cl` (relative stereo) [Example 14, S-{2-[3-(2-chlorophenyl)-2-(2,4-difluorophenyl)oxiranylmethyl]-2H-[1,2,4]triazole-3-yl} rel-(2S,3R)thio acetate], the “Infection in % at 600 ppm for Botrci P1” value in the experiment with Botrytis cinerea turned out to be 3%. In the experiment on Puccinia recondita (in vivo), the “Infection in % at 600 ppm for Puccrt P1” value stood at 0%.

As for `Fc1ccc([C@@]2(Cn3nc[nH]c3=S)O[C@@H]2c2ccccc2F)c(F)c1` (relative stereo) [Example 4, 1-[rel-(2S,3R)-2-(2,4-difluorophenyl)-3-(2-fluorophenyl)oxiran-2-ylmethyl]-1H-1,2,4-triazole-5(4H)-thione], the “Growth in % at 31 ppm for Pyrior” value in the experiment with Pyricularia oryzae (setting [1]) and in the experiment with Pyricularia oryzae (setting [2]) was 7% in each case.

For `Fc1ccc([C@]2(Cn3cnc(S)n3)O[C@H]2c2ccccc2Cl)c(F)c1` (relative stereo) [Example 1, 1-[rel-(2R,3S)-3-(2-chlorophenyl)-2-(2,4-difluorophenyl)oxiranylmethyl]-1H-[1,2,4]triazole-3-thiol], the “Infection in % at 600 ppm for Botrci P1” value in the experiment with Botrytis cinerea came to 7%. Further, the “Infection in % at 600 ppm for Puccrt P1” value in the experiment on Puccinia recondita (600 ppm, protective spray 1 day before inoculation, wheat, untreated 90%) is 0%.

Consider “S-{2-[3-(2-chlorophenyl)-2-(2,4-difluorophenyl)oxiranylmethyl]-2H-[1,2,4]triazole-3-yl}rel-(2S,3R)thio carbonate [Example 15]”, for which the “Growth in % at 31 ppm for Pyrior” value with Pyricularia oryzae was 64%.

`CSc1ncnn1C[C@]1(c2ccc(F)cc2F)O[C@@H]1c1ccccc1F` (relative stereo) [Example 8, 1-[rel-(2S,3R)-2-(2,4-difluorophenyl)-3-(2-fluorophenyl)oxiran-2-ylmethyl]-5-(methylthio)-1H-1,2,4-triazole]: the “Infection in % at 600 ppm for Phakpa K1” value with Phakopsora pachyrhizi came out at 1%.

On to `Fc1ccc([C@@]2(Cn3nc[nH]c3=S)O[C@@H]2c2ccccc2C(F)(F)F)cc1F` (relative stereo) [Example 5, 1-[rel-(2S,3R)-2-(3,4-difluorophenyl)-3-(2-(trifluoromethyl)phenyl)oxiran-2-ylmethyl]-1H-1,2,4-triazole-5(4H)-thione], for which, in the experiment with Puccinia recondita (300 ppm, protective spray 1 day before inoculation, wheat, untreated 90%), the “Infection in % at 300 ppm for Puccrt P1” value was determined as 10%.

`CSc1ncnn1C[C@]1(c2ccc(F)cc2F)O[C@@H]1c1ccccc1Cl` (relative stereo) [Example 10, 1-[rel-(2S,3R)-3-(2-chlorophenyl)-2-(2,4-difluorophenyl)oxiran-2-ylmethyl]-5-(methylthio)-1H-1,2,4-triazole]: the “Infection in % at 600 ppm for Phakpa K1” value with Phakopsora pachyrhizi is listed as 0%.

As to `CSc1ncnn1C[C@]1(c2ccc(F)c(F)c2)O[C@@H]1c1ccccc1C(F)(F)F` (relative stereo) [Example 9, 1-[rel-(2S,3R)-2-(3,4-difluorophenyl)-3-(2-(trifluoromethyl)phenyl)oxiran-2-ylmethyl]-5-(methylthio)-1H-1,2,4-triazole], in the experiment with Phakopsora pachyrhizi, the “Infection in % at 600 ppm for Phakpa K1” value was 0%.

As to `Fc1ccc([C@@]2(Cn3nc[nH]c3=S)O[C@@H]2c2ccccc2Cl)cc1F` (relative stereo) [Example 3, 1-[rel-(2S,3R)-3-(2-chlorophenyl)-2-(3,4-difluorophenyl)oxiran-2-ylmethyl]-1H-1,2,4-triazole-5(4-H)-thione], the “Growth in % at 31 ppm for Leptno” value in the experiment with Leptosphaeria nodorum was 60%. Besides, in the experiment with Puccinia recondita (in vivo), the “Infection in % at 600 ppm for Puccrt P1” value was 0%.
